# In PMC7615343, “Fluorination Influences the Bioisostery of Myo-Inositol Pyrophosphate Analogs” (Chemistry (Weinheim an der Bergstrasse, Germany), 2023):
# Experiment: Anion-exchange HPLC of [33P]-labeled products of PPIP5K2-mediated phosphorylation (relative polarity)
# Type: physicochemical
# Settings: PartiSphere SAX column, NH4H2PO4 gradient pH 4.0; elution order 5PA-IP5 < 5PCF2Am-IP5 < 5PCP-IP5 < 5PCF2P-IP5 < 5PP-IP5
# From the text: Lastly, we also developed a protocol by which we can infer the relative polarities of each of the analogs. […] As shown above, 5PA-IP5 and the other analogs each bind in potentially productive orientations in which the 1-phosphate is presented to the active site. Therefore, we attempted to radiolabel each of the analogs by incorporation of [33]Pi from [33]P-γ-ATP, with the objective of resolving each of the [33]P-labeled products by anion-exchange HPLC. We reasoned that this assay could provide an empirical comparison of the relative degree of acidity of each reaction product - and more instructively - the substrates themselves. It should be emphasized that this experiment cannot inform on the relative rates of phosphorylation, in large part because the experimental protocol (low mass levels of high-specific radioactivity of [33]P-γ-ATP) are not appropriate for biologically-relevant kinetic determinations.
# Figure 6 HPLC analysis of the products of PPIP5K-mediated phosphorylation of 5PP-IP5 and the various analogs. […]
# Kinase activity was studied at 37°C by incubating 700 ng PPIP5K2^1-366 separately with each individual 10 μM test compound and 50 μM ATP plus 60,000 CPM of [^33P-γ]ATP for 30 mins. Assays were quenched with 0.2 volumes of 2 M perchloric acid, neutralized, and [^33P]-labeled products were analyzed by ion-exchange HPLC, using a 4.6 × 125 mm, 5 μm PartiSphere SAX column. […]
compound,measurement,value
O=P(O)(O)O[C@H]1[C@@H](OP(=O)(O)O)[C@H](OP(=O)(O)O)[C@@H](OP(=O)(O)C(F)(F)P(=O)(O)O)[C@H](OP(=O)(O)O)[C@H]1OP(=O)(O)O [5PCF2P-IP5],Relative HPLC elution of phosphorylated product (protonation state / global polarity compared with 5PP-IP5),most closely resembles the natural molecule with regards to its protonation state
